Publication PMC12352620, “Fragment-based discovery of dual ligand pharmacophores for lipid-sensing transcription factors for designed polypharmacology” (RSC Medicinal Chemistry, 2025)

Experiments:
Assay type in all cases: cell-based
PPARδ = target: T1, PPARδ (Homo sapiens, UniProt Q03181); assay: Gal4-hybrid reporter gene assay PPARδ (selectivity); settings: mean, n ≥ 3, Fig. 8
T1 construct: expressed in transfected cells; host or cells: HEK293T
T1 sequence (Q03181 138-441 limits assumed): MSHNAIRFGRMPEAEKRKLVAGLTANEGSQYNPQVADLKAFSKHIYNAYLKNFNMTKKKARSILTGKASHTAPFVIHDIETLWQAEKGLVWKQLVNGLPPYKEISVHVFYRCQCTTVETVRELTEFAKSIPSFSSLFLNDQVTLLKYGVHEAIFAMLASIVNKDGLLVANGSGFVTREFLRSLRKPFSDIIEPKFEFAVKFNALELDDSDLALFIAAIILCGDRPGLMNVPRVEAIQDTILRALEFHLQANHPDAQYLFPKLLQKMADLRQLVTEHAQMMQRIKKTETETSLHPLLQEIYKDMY
Method: (§1) NR modulation was determined as described previously[45] in Gal4 hybrid reporter gene assays in HEK293T cells (German Collection of Microorganisms and Cell Culture GmbH, DSMZ) using pFR-Luc (Stratagene, La Jolla, CA, USA; reporter), pRL-SV40 (Promega, Madison, WI, USA; internal control) and the hybrid receptor clones pFA-CMV-hTHRα-LBD,[46] pFA-CMV-hPPARγ-LBD,[47] pFA-CMV-hFXR-LBD,[48] and pFA-CMV-hRXRα-LBD,[49] coding for the hinge region and ligand binding domain of the canonical isoform of the respective NR. Cells were cultured in Dulbecco's modified Eagle's medium (DMEM), high glucose supplemented with 10% fetal calf serum (FCS), sodium pyruvate (1 mM), penicillin (100 U mL^−1), and streptomycin (100 μg mL^−1) at 37 °C and 5% CO2 and seeded in 96-well plates (3 × 10^4 cells per well). After 24 h, medium was changed to Opti-MEM without supplements and cells were transiently transfected using Lipofectamine LTX reagent (Invitrogen, Carlsbad, CA, USA) according to the manufacturer's protocol. Five hours after transfection, cells were incubated with the test compounds in Opti-MEM supplemented with penicillin (100 U mL^−1), streptomycin (100 μg mL^−1) and 0.1% DMSO for 16 h before luciferase activity was measured using the Dual-Glo Luciferase Assay System (Promega) according to the manufacturer's protocol on a Tecan Spark luminometer (Tecan Deutschland GmbH, Crailsheim, Germany). Firefly luminescence was divided by Renilla luminescence and multiplied by 1000 resulting in relative light units (RLU) to normalize for transfection efficiency and cell growth. Fold activation was obtained by dividing the mean RLU of test compound by the mean RLU of the untreated control. All samples were tested in at least three biologically independent experiments in duplicates. For dose–response curve fitting and calculation of EC50 values, the equation “[agonist] vs. response − variable slope (four parameters)” was used in GraphPad Prism (version 7.00, GraphPad Software, La Jolla, CA, USA). For selectivity profiling, the hybrid reporter gene assay was performed with Gal4 fusion receptor plasmids for RARα, PPARα, PPARδ, VDR, CAR and LXRα. The following reference agonists were used: triiodothyronine (1 μM, THR), all-trans retinoic acid (1 μM, RAR), GW7647 (1 μM, PPARα), pioglitazone (1 μM, PPARγ), L165041 (1 μM, PPARδ), calcitriol (1 μM, VDR), CITCO (1 μM, CAR), T0901317 (1 μM, LXR), GW4064 (1 μM, FXR), bexarotene (1 μM, RXR).

THRα = target: T2, THRα (Homo sapiens, UniProt P10827); assay: Gal4-hybrid reporter gene assay THRα; settings: n ≥ 3; for fold act. THRα: mean, Fig. 8; for EC50: HEK293T, Gal4-hybrid reporter, Inactive = tested 1–300 μM; for EC50 / max. fold activation THRα: mean ± S.E.M.; for max. fold activation THRα: maximum reporter activation vs DMSO (0.1%) treated cells
T2 construct: expressed in transfected cells; host or cells: HEK293T
T2 sequence (P10827 128-410 isoform P10827-2 limits assumed): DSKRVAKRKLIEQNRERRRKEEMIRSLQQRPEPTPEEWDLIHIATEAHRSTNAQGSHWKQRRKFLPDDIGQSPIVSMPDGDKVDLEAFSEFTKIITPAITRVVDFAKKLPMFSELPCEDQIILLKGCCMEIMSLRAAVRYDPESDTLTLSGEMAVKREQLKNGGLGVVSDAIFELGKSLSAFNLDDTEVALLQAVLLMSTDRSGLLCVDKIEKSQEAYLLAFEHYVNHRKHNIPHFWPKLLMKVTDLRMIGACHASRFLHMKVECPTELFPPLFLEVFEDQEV
Method: as §1

RARα = target: T3, RARα (Homo sapiens, UniProt P10276); assay: Gal4-hybrid reporter gene assay RARα (selectivity); settings: mean, n ≥ 3, Fig. 8
T3 construct: expressed in transfected cells; host or cells: HEK293T
T3 sequence (P10276 154-462 limits assumed): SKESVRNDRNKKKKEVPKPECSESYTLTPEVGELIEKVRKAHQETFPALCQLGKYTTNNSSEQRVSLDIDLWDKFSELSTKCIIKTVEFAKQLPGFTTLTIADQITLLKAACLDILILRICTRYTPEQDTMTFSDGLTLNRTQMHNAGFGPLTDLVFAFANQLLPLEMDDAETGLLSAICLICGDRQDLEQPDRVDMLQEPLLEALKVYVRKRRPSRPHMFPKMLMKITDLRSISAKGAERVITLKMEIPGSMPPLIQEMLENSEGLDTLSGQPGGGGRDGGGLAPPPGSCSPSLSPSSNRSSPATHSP
Method: as §1

RXRα = target: T4, RXRα (Homo sapiens, UniProt P19793); assay: Gal4-hybrid reporter gene assay RXRα; settings: n ≥ 3; for fold act. RXRα: mean, Fig. 8; for EC50 / EC50 RXRα: HEK293T, Gal4-hybrid reporter, Inactive = tested 1–300 μM; for EC50 / max. fold activation RXRα / EC50 RXRα: mean ± S.E.M.; for max. fold activation RXRα: maximum reporter activation vs DMSO (0.1%) treated cells
T4 construct: expressed in transfected cells; host or cells: HEK293T
T4 sequence (P19793 227-458 limits assumed): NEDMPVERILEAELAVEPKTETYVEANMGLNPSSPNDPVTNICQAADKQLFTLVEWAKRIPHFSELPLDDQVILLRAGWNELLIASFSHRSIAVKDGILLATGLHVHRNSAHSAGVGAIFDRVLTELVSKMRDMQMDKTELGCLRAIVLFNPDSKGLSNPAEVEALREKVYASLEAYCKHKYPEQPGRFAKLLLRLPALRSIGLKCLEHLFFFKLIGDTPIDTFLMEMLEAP
Method: as §1

| Structure (SMILES) | fold act. PPARδ (PPARδ; 10 μM) [fold] | fold act. THRα (THRα; 10 μM) [fold] | EC50 (THRα) [µM] | max. fold activation THRα (THRα) | fold act. RARα (RARα; 10 μM) [fold] | fold act. RXRα (RXRα; 10 μM) [fold] | EC50 (RXRα) [µM] | max. fold activation RXRα (RXRα) | fold act. PPARδ (PPARδ; 30 μM) [fold] | fold act. THRα (THRα; 30 μM) [fold] | fold act. RARα (RARα; 30 μM) [fold] | fold act. RXRα (RXRα; 30 μM) [fold] | EC50 RXRα (RXRα) | fold act. PPARδ (PPARδ; 40 μM) [fold] | fold act. THRα (THRα; 40 μM) [fold] | fold act. RARα (RARα; 40 μM) [fold] | fold act. RXRα (RXRα; 40 μM) [fold] |
| --- | --- | --- | --- | --- | --- | --- | --- | --- | --- | --- | --- | --- | --- | --- | --- | --- | --- |
| CCOc1ccc(-c2cc(C(=O)O)co2)cc1 [3.1, 5-(4-Ethoxyphenyl)furan-3-carboxylic acid] | 2 | 4 | 1.5 ± 0.2 | (3.7 ± 0.2-fold) | 6 | 4 | 0.9 ± 0.2 | (4.3 ± 0.5-fold) |  |  |  |  |  |  |  |  |  |
| O=C(O)/C=C/C(=O)c1ccc(Cl)cc1Cl [4.6, (E)-4-Oxo-4-(2,4-dichlorophenyl)but-2-enoic acid] |  |  | 43 ± 3 | (4.2 ± 0.3-fold) |  |  |  |  | 1 | 2 | 1 | 1 | Inactive |  |  |  |  |
| O=C(O)/C=C/C(=O)c1ccc(-c2ccccc2)cc1 [4.7, (E)-4-([1,1′-Biphenyl]-4-yl)-4-oxobut-2-enoic acid] |  |  | 16 ± 7 | (14.8 ± 1.0-fold) |  |  |  |  | 3 | 15 | 3 | 1 | Inactive |  |  |  |  |
| O=C(O)/C=C/C(=O)c1ccc2ccccc2c1 [4.8, (E)-4-Oxo-4-(naphthalen-2-yl)but-2-enoic acid] |  |  | 39 ± 1 | (28 ± 1-fold) |  |  | 26 ± 3 | (4.5 ± 0.5-fold) |  |  |  |  |  | 3 | 16 | 3 | 5 |
